How the values were obtained:
[1] = target: Corticotropin-releasing factor receptor 1 (Rattus norvegicus) (UniProt P35353); experiment: Compound was tested for the inhibition of binding of the radioligand, [125 I-Tyr0]-CRF to rat cerebral cortex membrane
[2] = target: Corticotropin-releasing factor receptor 1 (Rattus norvegicus) (UniProt P35353); experiment: Inhibition of corticotropin releasing factor receptor mediated increase in cAMP level using rat cortical homogenates in vitro.

Chain of Corticotropin-releasing factor receptor 1 (Rattus norvegicus) (P35353 whole entry, looked up): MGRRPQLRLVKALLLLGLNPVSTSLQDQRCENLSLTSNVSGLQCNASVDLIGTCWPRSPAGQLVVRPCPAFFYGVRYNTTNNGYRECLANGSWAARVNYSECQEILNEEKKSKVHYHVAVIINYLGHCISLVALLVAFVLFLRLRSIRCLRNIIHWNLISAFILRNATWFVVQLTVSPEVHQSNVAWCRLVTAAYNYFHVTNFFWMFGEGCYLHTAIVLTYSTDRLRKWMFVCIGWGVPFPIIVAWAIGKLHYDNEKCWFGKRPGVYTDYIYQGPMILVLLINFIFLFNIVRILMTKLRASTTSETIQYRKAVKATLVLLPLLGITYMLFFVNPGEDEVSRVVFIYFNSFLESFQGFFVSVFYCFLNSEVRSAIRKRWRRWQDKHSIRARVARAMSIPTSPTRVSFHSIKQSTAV

Structure (SMILES)	Ki [1] [nM]	IC50 [2] [nM]
CCN(c1nc(C)cc(N2CCOCC2)n1)c1ccc(C(C)C)cc1Br [(2-Bromo-4-isopropyl-phenyl)-ethyl-(4-methyl-6-morpholin-4-yl-pyrimidin-2-yl)-amine]	63	–
COCC(COC)n1nnc2c(Nc3c(C)cc(C)cc3Cl)nc(C)cc21 [DMP-695]	–	79

— BindingDB's records for doi:10.1021/jm990590f (Dupont Pharmaceuticals, 2000)
